B1: rAPN: mouse recombinant adiponectin polypeptide of about 30 kDa obtained from BioVision Research Products (protein, UniProt Q60994 18-247, looked up)
Adiponectin: EDDVTTTEELAPALVPPPKGTCAGWMAGIPGHPGHNGTPGRDGRDGTPGEKGEKGDAGLLGPKGETGDVGMTGAEGPRGFPGTPGRKGEPGEAAYVYRSAFSVGLETRVTVPNVPIRFTKIFYNQQNHYDGSTGKFYCNIPGLYYFSYHITVYMKDVKVSLFKKDKAVLFTYDQYQEKNVDQASGSVLLHLEVGDQVWLQVYGDGDHNGLYADNVNDSTFTGFLLYHDTN

Assays:
laser-induced CNV = experiment: laser-induced mouse model of choroidal neovascularization (CNV), CNV size by confocal microscopy; assay type: in vivo, C57BL/6 mice; conditions: for reduction in CNV size compared to control: p<0.005; for neovascular complex in laser spots, confocal micrograph: compared to control; for reduction of CNV size compared to control mice: injected subretinally into the eye, 5 μg; for reduction of CNV size compared to control mice / decrease in CNV size compared to control mice: control PBS; for decrease in CNV size compared to control mice: day 7 after laser; for effect on CNV size compared among adiponectin peptides (words): mouse model of CNV, route not stated
Procedure: Animals (C57BL/6 mice) were divided into 3 groups. CNV was induced by laser photocoagulation in group 1 (n=5) with the krypton red laser (50 μm spot size; 0.05 s duration; 250 mW), as previously described (Bora et al. 2003 Proc. Natl. Acad. Sci. USA 100:2679-2685; Bora et al. 2005 J. Immunol. 174:491-497) and no APN was administered to these mice. Three laser spots were placed in each eye close to the optic nerve. In group 2 (n=5), the mice were treated, i.p., with 25 μg of rAPN, one day before laser photocoagulation and every day after laser treatment until day 6. Group 3 animals received subretinal injections on days 0, 1, and 3 in one eye, the other eye received PBS as control. All the experiments were repeated three times.
We injected 50 μg peptide NH2-LQVYGDGDHNGLYADNVN-COOH (SEQ ID NO: 1, synthesized at Peptide Biochemical Research Inc. Seattle, USA; dissolved in PBS) intraperitoneally (i.p.) to mice (n=5) as well as intravitreally (i-vit.). Six i.p. injections were given, one preceding laser treatment and five following the laser treatment. Control group was given sterile PBS. One group (n=5) was photocoagulated on day 0 and on day 1 a single 30 μg i-vit. injection was given. All the experiments were repeated three times. Mice were sacrificed following perfusion with FITC dextran on day 7 and eyes removed and fixed in formaldehyde. Choroidal-scleral flat mounts were prepared and processed for immunostaining. Laser confocal micrographs were used to measure the size of CNV by Image-Pro-Plus software (Media Cybernetics, Inc. Silver Spring, Md.).
Seven days after laser treatment, the eyes of all animals were perfused with 1 ml of PBS containing 50 mg/ml fluorescein-labeled dextran (FITC-dextran; average molecular mass, 2×10^6; Sigma-Aldrich) and the animals were sacrificed. The eyes were harvested and fixed in 10% phosphate-buffered formalin, and retinal pigment epithelium (RPE)-choroid-scleral flat mounts were prepared as previously described (Bora et al. 2003 supra; Bora et al. 2005 supra.). RPE-choroid-scleral flat mounts were stained for elastin using a mAb specific for elastin (1.0 mg/ml; 1/2000 dilution; Sigma-Aldrich) followed by a Cy3-labeled secondary Ab (1.0 mg/ml; 1/2000 dilution; Sigma-Aldrich). The incidence and the size of CNV were determined by confocal microscopy. The size of the CNV complex was graded by morphometric analysis of the images (MetaMorph Image Analysis software package; Universal Imaging) obtained from confocal microscopy.

VEGF = experiment: RT-PCR of VEGF mRNA in choroids of laser-treated mice; assay type: in vivo, C57BL/6 mice; conditions: APN administered vs laser-treated mice without APN; FIG. 5; listed as APN
Procedure: Ten laser spots were placed in each eye of C57BL/6 mice as described below. Animals from each group (n=10/each time point) were sacrificed at days 1, 3, 5, and 7 post-laser treatment, RPE-choroid-scleral tissues harvested from the enucleated eyes were pooled separately for each time point and without laser treatment (control), and total RNA was prepared using SV Total RNA Isolation kit (Promega, Madison, Wis.). Equal amounts of the total RNA (0.2 μg) were used to detect the mRNA levels of GAPDH, VEGF, β-FGF and APN by RT-PCR using the reagents purchased from Applied Biosystems. The sense and antisense oligonucleotide primers were synthesized at Integrated DNA Technologies, and PCR used 30 cycles. The negative controls consisted of omission of RNA or reverse transcriptase in the reaction mixture. PCR products were analyzed on a 2% agarose gel and were examined by using the Molecular Analyst/PC program (Bio-Rad). RT-PCR was conducted using the following primers: GAPDH (forward (F), 5′-[…]-3′, SEQ ID NO; 5; reverse (R), 5′-[…]-3′, SEQ ID NO: 6); VEGF (F, 5′-GCGGGCTGCCTCGCAGTC-3′, SEQ ID NO: 7; R, 5′-[…]-3′, SEQ ID NO: 8); β-FGF (F, 5′-[…]-3′, SEQ ID NO: 9; R, 5′-[…]-3′, SEQ ID NO: 10); TGF-β2 (F, 5′-[…]-3′, SEQ ID NO: 11; R, 5′-[…]-3′, SEQ ID NO: 12); APN (F, 5′-[…]-3′, SEQ ID NO: 13; R, 5′-[…]-3′, SEQ ID NO: 14)

[1] = intraperitoneal (i.p.) injection, 25 μg rAPN or 50 μg 18 mer peptide

Molecule | reduction in CNV size compared to control (laser-induced CNV; i-vit injection, single dose a day after laser, FIG. 7B) | reduction in CNV size compared to control (laser-induced CNV; i.p. injection, 50 μg/mouse, six daily injections, FIG. 7A) | neovascular complex in laser spots, confocal micrograph (laser-induced CNV; i.p. injection) | reduction of CNV size compared to control mice (laser-induced CNV) [%] | decrease in CNV size compared to control mice (laser-induced CNV; [1]) [%] | neovascular complex in laser spots, confocal micrograph (laser-induced CNV; intravitreal injection) | decrease in CNV size compared to control mice (laser-induced CNV; intravitreal injection) | effect on CNV size compared among adiponectin peptides (words) (laser-induced CNV) | effect on CNV size compared among adiponectin peptides (words) (laser-induced CNV; listed as 18 mer synthetic peptide) | decrease in CNV size compared to control mice (laser-induced CNV; intravitreal injection, listed as APN) [%] | VEGF expression in the choroids of laser-treated mice (VEGF)
NH2-LQVYGDGDHNGLYADNVN-COOH (H-LQVYGDGDHNGLYADNVN-OH) [18 mer peptide, 18 mer synthetic peptide, amino acid residues 216-233 of mouse adiponectin globular domain] | significant reduction | significant reduction | significantly inhibited | 70 | ~80 | significantly inhibited | about 70% | as effective as the intact adiponectin protein | reduced the size of CNV similarly |  | 
B1 |  |  | significantly inhibited | 70 | 80 |  | about 70% | reduced the size of CNV similarly |  | 70 | inhibited VEGF expression

— US7964557B2, “Inhibition of wet type age related macular degeneration (AMD) by adiponectin or acrp 30” (University of Louisville Research Foundation, Inc., priority 2005, dated 2011)
